PubChem BioAssay AID624491 (Broad Institute, 2012)
Activity calls are given as the source filed them.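 The calls were made as follows: active = fitted curve crossing a set activation limit at or below the highest valid dose tested; inconclusive = flat fit at 30 to 70% activation, or poor fit; inactive = the rest, including signal decreases.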

test system: D54 ERlucT glycosylation luciferase reporter, luminescence, 24 h; assay: N-linked glycosylation inhibitors, luciferase reporter, dose response, D54 ERlucT cells, luminescence, cherry-picks (AID 624491);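 also: signal gain reflects blocked N-linked glycosylation of a luciferase reporter; actives raise luciferase signal so AC26 marks activators of the reporter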

| Structure (SMILES) | AC26 |
| --- | --- |
| O=C(c1ccccc1-c1ccccc1)N1CCN(c2ccccn2)CC1 | 2340 nM |
| CCOc1ccc(Nc2c3ccccc3nc3ccccc23)cc1 | 365 nM |
| COc1ccc(OC)c(Nc2cc3ccccc3c(=O)[nH]2)c1 | 207 nM |
| Cc1cc2[nH]c3ccccc3c2c(C)n1 | 3670 nM |
| COc1ccccc1N1CCN(S(=O)(=O)CCNC(=O)c2cc(OC)c(OC)c(OC)c2)CC1 | 3850 nM |
| O=C1c2cccc3cccc(c23)C(=O)N1CC1CCN(CC(O)COCc2ccc3c(c2)OCO3)CC1 (stereo not given) | > 19500 nM (inactive) |
| O=c1cc(-c2ccccc2)[nH]c2cc(F)ccc12 | 327 nM |
| CCN1C(=O)Nc2cccc3cccc1c23 | 3360 nM |
| Cc1ccc(NC(=O)c2cc(S(=O)(=O)N(C)C)ccc2N2CCCC2)cc1F | 109 nM |
| Cc1ccc(N2CC(C(=O)Nc3ccc(S(=O)(=O)N4CCOCC4)cc3)CC2=O)cc1Cl (stereo not given) | 3860 nM |
| Cc1cc(NC(=O)CSc2nc(-c3ccco3)cc(C(F)(F)F)n2)no1 | 565 nM |
| C=CCOc1ccc2nc(NC(=O)OC)[nH]c2c1 | 414 nM |
| CCN(CC)S(=O)(=O)c1cccc(C(=O)N/N=C/c2ccc([N+](=O)[O-])o2)c1 | 2340 nM |
| O=C(NCc1cccs1)C1CC(c2ccc(Cl)c(Cl)c2)=NO1 (stereo not given) | 5400 nM |
| CC(=O)Nc1sc(C)c(C)c1C(=O)OCC(=O)N(CC(C)C)c1c(N)n(Cc2ccccc2)c(=O)[nH]c1=O | 4710 nM |
| CCN(CC)CCNC(=O)c1cc2c(=O)n(C)c3ccccc3c2s1 | 3940 nM |
| CCN1C(=O)CCN(C2CCCC2)c2nc(Nc3ccc(C(=O)NC4CCN(C)CC4)cc3OC)ncc21 | 479 nM |
| Nc1nc(=S)c2ncn(C3OC(CO)C(O)C3O)c2[nH]1 (stereo not given) | 4980 nM |
| c1ccc(-c2cc(NCCN3CCCCC3)c3ccccc3n2)cc1 | 2910 nM |
| COc1cc(/C=N/NC(=O)c2cc(-c3c(C)nn(-c4ccccc4)c3C)n[nH]2)ccc1O | 1390 nM |
| Nc1c(N(Cc2ccccc2)C(=O)COc2ccc([N+](=O)[O-])cc2)c(=O)[nH]c(=O)n1Cc1ccccc1 | 389 nM |
| COC(=O)COc1cccc2c(=O)n(CC(=O)NCc3ccccc3)ccc12 | 1250 nM |
| O=C(NCc1ccccc1)C1Cc2c(-c3cccc(F)c3)ccnc2O1 (stereo not given) | 11.2 nM |
| Cc1nc2ncccn2c1-c1csc(Nc2ccc(N(C)C)cc2)n1 | 31.5 nM |
| COc1ccc(Nc2c3ccccc3nc3ccccc23)cc1 | 1020 nM |
| COc1ccc2c(c1)c(C(=O)N/N=C/c1ccc(Br)cc1)c(C)n2C | 17100 nM |
| CCn1c(=O)c2cc(C(=O)NCCN(C)C)sc2c2ccccc21 | 5230 nM |

| Structure (SMILES) | AC26 |
| --- | --- |
| Cc1ccc(C(=O)NC(=C(Cl)Cl)S(=O)(=O)c2ccc(Cl)cc2)cc1 | 3660 nM |
| COc1ccc(Nc2cc(C)nc(-n3nc(C)cc3C)n2)cc1 | 193 nM |
| O=C(CC1Nc2ccccc2NC1=O)Nc1ccccc1 (stereo not given) | 4880 nM |
| CN(C)CCc1cc2c(c3c1ccc1ccccc13)OCO2 | 5320 nM |
| CCCCCCn1c(=O)n2n(c1=O)[C@@H]1CN(S(=O)(=O)c3ccc(C)cc3)C[C@]1(O)[C@@H](OC(=O)NCc1ccccc1)C2 | 763 nM |
| CCCCn1c(SCc2c(C)noc2C)nc2cc(S(N)(=O)=O)ccc21 | 1190 nM |
| Cc1cc2c(cc(C(=O)OCC(=O)NCc3cccs3)n2C(C)C)o1 | 1740 nM |
| O=C1/C(=C\c2ccc(Cl)cc2)CCC1CNc1ccc(Cl)cc1 (stereo not given) | 5490 nM |
| CCOC(=O)c1nnc(-c2ccc(C)cc2)nc1Sc1ccccc1Cl | 6170 nM |
| COc1ccc(S(=O)(=O)Nc2cc3c(cc2C(C)=O)OCO3)cc1 | 5560 nM |
| COc1cc2c(cc1OC)C(c1cccs1)N(C(=O)c1ccncc1)CC2 (stereo not given) | 3030 nM |
| Cc1cccc(C(=O)Oc2ccccc2/C=N/NC(=O)c2ccc(NC(=O)C(C)(C)C)cc2)c1 | 1550 nM |
| COc1ccc2sc3cccc(NCCN(C)C)c3c(=O)c2c1 | 4530 nM |
| CN1CCc2nc3sc(C#N)c(N)c3c(-c3cccs3)c2C1 | 261 nM |
| Cc1c(Cl)cccc1Nc1nc(N)nc(CN2CCc3ccccc3C2)n1 | 320 nM |
| CC(=O)c1cccc(-c2ccnc3c2CC(C(=O)NCc2ccc(F)c(F)c2)O3)c1 (stereo not given) | 1370 nM |
| CCc1ccc(OCC(=O)Nc2ccc(-c3cc4ccccc4oc3=O)c(OC)c2)cc1 | 3090 nM |
| Cc1ccc(OC(=O)CCC(=O)Oc2ccc(C)cc2C)c(C)c1 | > 19500 nM (inactive) |
| Cn1cccc1/C=C1\C(=O)NC(=O)N(Cc2ccccc2Cl)C1=O | 2490 nM |
| Cc1cc(C)nc(/N=C(\N)Nc2ccc(OCCC(C)C)cc2)n1 | 776 nM |
| CCOc1ccc(C(=O)n2cc(C(=O)OC)c3ccccc32)cc1 | > 19500 nM (inactive) |
| Cc1ccc(C(=O)NCc2nnc(SCC(=O)NC(C)c3ccccc3)n2C)cc1 (stereo not given) | 3980 nM |
| Cc1ccc(C(=O)N/C(=C/c2ccco2)C(=O)NCCc2c[nH]c3ccccc23)cc1 | 2670 nM |
| CN(C)C(=O)c1cccc(-c2cnc3c(NC=O)cc(-c4ccccc4Cl)cn23)c1 | 6820 nM |
| c1ccc(-n2nnnc2-c2cccc3ccccc23)cc1 | 2390 nM |
| COc1ccc(NCC(=O)n2c(C)c(C)c3ccccc32)cc1 | 3640 nM |
| Cc1cc([N+](=O)[O-])ccc1Nc1nc2ccccc2n2cnnc12 | 8280 nM |

| Structure (SMILES) | AC26 |
| --- | --- |
| Cc1cc(C)cc(NC(=O)CCn2c(=O)c3cccn3c3ccccc32)c1 | 4950 nM |
| NC(=O)c1cccc(-c2coc3c(C(=O)NCc4ccccc4)cccc23)c1 | 4070 nM |
| COc1ccccc1-c1csc(C(NC(C)=O)c2ccc(F)c(F)c2)n1 (stereo not given) | 341 nM |
| Cn1c(=O)[nH]c(=O)c2c1nc(N/N=C/c1cccnc1)n2Cc1ccc(Cl)cc1 | 1630 nM |
| COc1ccc(/C=N/NC(=O)c2cccnc2)cc1COc1ccc(NC(C)=O)cc1 | 1990 nM |
| COc1ccc(OC(=O)N2C/C(=C/c3ccccc3)C(=O)/C(=C\c3ccccc3)C2)cc1 | 299 nM |
| CCn1c(SCC(=O)N/N=C/c2ccc(C)s2)nc2ccccc21 | 2200 nM |
| Cc1ccc(S(=O)(=O)NC2=C(N3CCN(Cc4ccccc4)CC3)C(=O)c3ccccc3C2=O)cc1 | 3810 nM |
| COc1ccc2c(c1)[C@H]1[C@H](CO2)[C@H](c2ccccc2)[C@]2(C)C(=O)Nc3ccc(Cl)cc3C(=O)N12 | 426 nM |
| c1ccc2c(c1)c1c(c3ccccc32)CN2CCCC2C1 (stereo not given) | 2700 nM |
| Cn1cccc1/C=C1\SC(=Nc2cccc(O)c2)NC1=O | 2850 nM |
| CC(=O)Nc1cccc(-c2ccnc3c2CC(C(=O)NCc2cccc(Cl)c2)O3)c1 (stereo not given) | 9220 nM |
| Cc1ccc(Sc2c(CO)c(-c3ccccc3)nn2C)cc1 | 341 nM |
| O=C(N/N=C/c1cccc(C(F)(F)F)c1)C1CCN(c2ncc(C(F)(F)F)cc2Cl)CC1 | 5890 nM |
| Cc1cc(-c2nnc3n2N=C(c2ccc(-c4ccccc4)cc2)CS3)n[nH]1 | 2760 nM |
| NC(=O)CC(NC(=O)c1ccc(Br)cc1)c1ccc(NC2CCCCC2)c([N+](=O)[O-])c1 (stereo not given) | 6020 nM |
| Cc1cc(NCCN2CCOCC2)c2ccc3ccccc3c2n1 | 3590 nM |
| CCNc1ccc(C(=O)OCC)cc1NC(=O)c1cccc(N(C)C)c1 | 3160 nM |
| COc1ccc2c(c1)OC[C@H]1[C@H]2N2C(=O)c3cc(OC)ccc3NC(=O)[C@@]2(C)[C@H]1c1ccccc1 | 1360 nM |
| COc1ccc2c(c1)C(=O)N1[C@H]3c4cc(Cl)ccc4OC[C@@H]3[C@H](c3ccccc3)[C@]1(C)C(=O)N2 | 1010 nM |
| C[C@H](CO)N1C[C@H](C)[C@@H](CN(C)S(=O)(=O)c2ccccc2)Oc2c(NC(=O)Cc3ccccc3)cccc2C1=O | 3400 nM |
| Cc1cc(Br)cc2c(C(=O)Nc3c(C)n(C)n(-c4ccccc4)c3=O)cc(-c3cccs3)nc12 | 3650 nM |
| COc1ccccc1C(=O)Nc1ccc2c(c1)nc(CCNC(=O)c1ccco1)n2C | 1550 nM |
| Cc1nc([N+](=O)[O-])c(Sc2nc3ccccc3[nH]2)n1Cc1ccccc1 | 8510 nM |
| O=C(c1[nH]c(C(F)(F)F)nc1-c1ccccc1)N1CCN(c2cccc(C(F)(F)F)n2)CC1 | 9230 nM |
| O=C(C=Cc1cccc(O)c1)c1ccccc1O | 3290 nM |
| COc1ccc(CCn2c(=N)c(C(=O)NCCN3CCOCC3)cc3c(=O)n4cccc(C)c4nc32)cc1OC | 739 nM |

| Structure (SMILES) | AC26 |
| --- | --- |
| COc1cc2c(cc1OC)C(=O)N1[C@H]3c4ccccc4OC[C@@H]3[C@H](c3ccccc3)[C@]1(C)C(=O)N2 | 42.6 nM |
| Nc1ccc(-c2cc(NC=O)c3ncc(-c4cccc(C(F)(F)F)c4)n3c2)cn1 | 3430 nM |
| COc1cc2c(cc1OC)C(=O)N1[C@H]3c4cc(C)ccc4OC[C@@H]3[C@H](c3ccccc3)[C@]1(C)C(=O)N2 | 387 nM |
| CC[C@H](C)[C@H](NC(=O)c1ccc(Cl)cc1)C(=O)OCC(=O)c1ccc2c(c1)NC(=O)CO2 | 6470 nM |
| COc1ccc(OC)c(Nc2nc(-c3c(C)nc4ncccn34)cs2)c1 | 2730 nM |
| CNc1ccc(Br)cc(C(=O)/C=C/c2ccc(OC)cc2)c1=O | 2660 nM |
| CCCCN(CC)CCCNC(=O)c1cc2c(=O)n(C)c3ccccc3c2n1C | 3310 nM |
| Cc1ccc(Nc2nc(N)nc(CN3CCN(Cc4ccccc4)CC3)n2)cc1Cl | 110 nM |
| CN(C)CCCN1C(=O)c2cccc3cccc(c23)C1=O | 3880 nM |
| O=C(N/N=C/c1ccc(Cl)cc1)c1cc(-c2cccnc2)nc2ccccc12 | 417 nM |
| Cc1cc(Sc2ccc([N+](=O)[O-])cn2)ccc1Br | 6940 nM |
| CCOC(=O)[C@H]1[C@H]2COc3ccc(OC)cc3[C@@H]2N2C(=O)c3cc(OC)c(OC)cc3NC(=O)[C@@]12C | 300 nM |
| CCC(=NCCc1c(C)[nH]c2ccc(OC(F)(F)F)cc12)C1=C(O)CC(c2ccccc2)CC1=O (stereo not given) | 817 nM |
| C[C@@H](NC(=O)c1ncn2c1c(=O)[nH]c1ccc(Br)cc12)c1ccccc1 | 2060 nM |
| O=C(Nc1ccc(S(=O)(=O)N2CCOCC2)cc1)c1cc(-c2cc(Cl)ccc2O)n[nH]1 | 1260 nM |
| C/C(=N/NC(=O)c1cccs1)c1ccc(NC(=O)COc2ccc(Cl)cc2Cl)cc1 | 6270 nM |
| Cc1ccc(S(=O)(=O)C(NC(=O)c2ccccc2)=C(Cl)Cl)cc1 | 4090 nM |
| CCN(c1cccc(C)c1)S(=O)(=O)c1ccc(-c2cc(C)no2)s1 | 1270 nM |
| CCN1C(=O)c2cccc3c(S(=O)(=O)Nc4ccccn4)ccc1c23 | 2870 nM |
| Cc1cccc(C)c1OCCNC(=O)C(=O)NCc1ccco1 | 1710 nM |
| Cc1noc(C)c1COc1ccc(C(=O)NNC(=O)c2ccccc2F)cc1 | 33.4 nM |
| CCn1c2ccccc2c2cc(NC(=O)CNCc3ccccc3OC)ccc21 | 1360 nM |
| CCN(CC)c1ccc(/C=N/NC(=O)c2cnccn2)cc1 | 780 nM |
| COc1cc2c(cc1OC)C(c1ccccc1)N(C(=O)c1ccccc1F)CC2 (stereo not given) | 1100 nM |
